Results taken from US8420341B2, “Methods for measuring ADP” (Genewiz Inc., Suzhou, priority 2007, dated 2013).

Biological target: PKA (Homo sapiens, UniProt P17612)
Assay: PKA kinase reaction, ADP luminescent enzyme-coupled assay
Assay type: biochemical
Conditions: 5 μM ATP, 30 μM Kemptide, 2.5 nM PKA, 90 minutes at room temperature; FIGS. 4A-4B
Protocol: Assay Procedures 1. Add 10 μl reagent A to 30 μl kinase reaction mixtures and incubate at RT. 2. Add 10 μl reagent B and read luminescence immediately.
At the end of incubation, 10 μl Reagent B were added and luminescence was measured. Each data point represents the average of 3 repeats.

O=S(=O)(NCCNC/C=C/c1ccc(Br)cc1)c1cccc2cnccc12 [H89]
luminescence signals (PKA activity) with increasing amounts of inhibitor: decreased luminescence signals in a dose dependent manner
